{"source": "patent US20220339227A1", "about": "“COMPOSITIONS OF CANNABINOIDS FOR DELIVERY BY INHALATION” (priority 2019, published 2022)", "key": {"[1]": {"assay": "Pharmacokinetic study in rats: dry powder insufflation of TFF-CBD and intravenous CBD solution", "assay_type": "in vivo", "settings": "plasma, intravenous solution 10 mg/kg, rat, read-out: Cannabidiol concentration in rat plasma, Intravenous", "experimental": "A dry powder formulation for inhalation containing 25% (w/w) of Cannabidiol (CBD) was developed using TFF technology, and a pharmacokinetic (PK) study in rats was performed using PennCentury™ DP4 dry powder Insufflator™ with a target delivered dose of 10 mg/kg CBD. […] For comparison and in contrast to the plasma levels of this TFF-CBD inhaled powder, in an inhaled CBD pharmacokinetic study in rats reported by Hložek et al. (2017) using CBD dissolved in a ethanolic solution and vaporized using heat, the inventors calculated based on information in this paper the administered amount of CBD as the delivered dose of 1.798 mg, or 7.98 mg/kg (calculated according Wang et al., 2014; DD=C×RMV×D, where DD is the delivered dose in mg, C is the concentration of drug powder in air in mg/L, RMV is the respiratory minute volume of a rat in L/min (RMV (L/min) for rats is calculated as =0.608×BW (kg)^0.852), and D is the exposure duration in min; based on 20 mg CBD nebulized into 9.5 L dosing chamber; a calculated RMV of 0.17 L/min, an average body weight of 225 g and exposure time of 5 min). […] There is a difference between this TFF-CBD inhaled powder that maintained relatively constant plasma levels over 8 hours compared to the rapid decline in serum levels of inhaled CBD ethanolic solution reported by Hložek et al. (2017). Possible explanations include that the TFF-CBD powder can better avoid lung clearance and that the TFF-CBD powder particles deposited in the lungs continue to dissolve and be absorbed from the lungs to plasma. (Beinborn et al., 2012; Wang et al., 2014; Carvalho et al., 2014). […] For comparison, based on CBD plasma levels of Huntington's disease patients, as reported by Consroe et al. (1991), the orally administered CBD dose of 10 mg/kg/day, which is the recommended maintenance dose of Epidiolex®, for 6 weeks by oral administration resulted a steady state CBD plasma level between 5.9 and 11.2 ng/mL.\nTo study of plasma level with lower dose of the TFF-CBD powder by dry powder inhalation, another pharmacokinetic study in rats was performed using PennCentury™ DP4 dry powder Insufflator™ with a target delivered dose of 3 mg/kg and 1 mg/kg CBD. […] In other words, TFF-CBD dry powder inhalation was more efficient in delivering CBD than the vaporized CBD liquid. Therefore, delivery of TFF-CBD powder by dry powder inhalation requires a lower dose to reach the similar systemic levels of CBD as compared to vaporized CBD liquid by inhalation, thus showing TFF-CBD will present better efficacy at equivalent doses."}, "[2]": {"settings": "rat, 7.98 mg/kg, cited from earlier work; for CBD serum level: vaporized CBD, by four hours"}, "[3]": {"settings": "Huntington's disease patients, oral 10 mg/kg/day for 6 weeks; cited from earlier work"}}, "note": "Read-outs that look alike come from different tables or passages of the source.", "data": [{"smiles": "C=C(C)[C@@H]1CCC(C)=C[C@H]1c1c(O)cc(CCCCC)cc1O", "note": "[Cannabidiol]", "values": [{"measurement": "concentration at 0.083 h", "setting": "[1]; n=5, 0.083 h", "value": "4.28 ± 0.891", "unit": "µg/mL"}, {"measurement": "concentration at 0.25 h", "setting": "[1]; n=5, 0.25 h", "value": "1.77 ± 0.297", "unit": "µg/mL"}, {"measurement": "concentration at 0.5 h", "setting": "[1]; n=5, 0.5 h", "value": "1.04 ± 0.217", "unit": "µg/mL"}, {"measurement": "concentration at 1 h", "setting": "[1]; n=5, 1 h", "value": "0.601 ± 0.193", "unit": "µg/mL"}, {"measurement": "concentration at 2 h", "setting": "[1]; n=5, 2 h", "value": "0.272 ± 0.112", "unit": "µg/mL"}, {"measurement": "concentration at 4 h", "setting": "[1]; n=5, 4 h", "value": "0.05 ± 0.023", "unit": "µg/mL"}, {"measurement": "concentration at 8 h", "setting": "[1]; n=5, 8 h", "value": "0.0161 ± 0.0113", "unit": "µg/mL"}, {"measurement": "CBD serum level, peak", "setting": "[2]; vaporized CBD ethanolic solution, immediately after removal from inhalation dosing chamber", "value": "about 220 ng/mL"}, {"measurement": "CBD serum level", "setting": "[2]; listed as CBD", "value": "less than 20 ng/mL"}, {"measurement": "CBD serum level", "setting": "[2]", "value": "below 20 ng/mL"}, {"measurement": "effect of the dosing level in Huntington's disease", "setting": "[3]", "value": "neither symptomatically effective nor toxic"}]}]}
